The source of these data is PubChem BioAssay AID256 (DTP/NCI, 2004).

The subject of the assay is CD2F1 mice, L1210 leukemia ip, survival T/C. Nature of the assay: NCI In Vivo Anticancer Drug Screen. Data for tumor model L1210 Leukemia (intraperitoneal) in CD2F1 (CDF1) mice. As to conditions: endpoint: mean survival time, higher = longer survival. Put shortly: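 Compound-dosed mice with transplantable tumor versus matched vehicle controls; endpoint ratio T/C reported.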

Where [1] appears, read: dose: 6.25 mg/kg/injection, schedule: Q01DX009 (ip), vehicle: saline with Tween-80.
Where [2] appears, read: dose: 12.5 mg/kg/injection, schedule: Q01DX009 (ip), vehicle: saline with Tween-80.
Where [3] appears, read: dose: 25.0 mg/kg/injection, schedule: Q01DX009 (ip), vehicle: saline with Tween-80.
The mark [4] stands for this setting: dose: 50.0 mg/kg/injection, schedule: Q01DX009 (ip), vehicle: saline with Tween-80.
The mark [5] stands for this setting: dose: 200.0 mg/kg/injection, schedule: Q01DX009 (ip), vehicle: saline with Tween-80.
The mark [6] stands for this setting: dose: 100.0 mg/kg/injection, schedule: Q01DX009 (ip), vehicle: saline with Tween-80.
Setting [7] is: dose: 400.0 mg/kg/injection, schedule: Q01DX009 (ip), vehicle: saline with Tween-80.
[8] abbreviates: dose: 100.0 mg/kg/injection, schedule: Q01DX001 (ip), vehicle: saline with Tween-80.
Where [9] appears, read: dose: 200.0 mg/kg/injection, schedule: Q01DX001 (ip), vehicle: saline with Tween-80.
[10] abbreviates: dose: 400.0 mg/kg/injection, schedule: Q01DX001 (ip), vehicle: saline with Tween-80.

SMILES strings stand for the structures. “And” between values parts separate entries of the source, which are not always exact repeats. Equal entries are not always repeated. Toxic doses and inconclusive results are not listed.

As to `CS(=O)(=O)OCCN(CCOS(C)(=O)=O)c1ccc(C=O)cc1`, the T/C is, setting by setting: (dose: 3.12 mg/kg/injection, schedule: Q01DX009 (ip), vehicle: saline with Tween-80) 113 % of control and 115 % of control; under setting [1], 115 % of control and 112 % of control; under setting [2], 117 % of control; (dose: 12.5 mg/kg/injection, schedule: Q01DX009 (ip), vehicle: saline) 96 % of control; under setting [3], 112 % of control; (dose: 25.0 mg/kg/injection, schedule: Q01DX009 (ip), vehicle: saline) 102 % of control. Besides, under setting [4], the T/C is 95 % of control.

With `Nc1nc(F)nc2c1ncn2C1OC(COC=O)C(OC=O)C1O` (configuration not stated) (tested in a mixture with another compound), the T/C by setting is: (dose: 100.0 mg/kg/injection, schedule: Q01DX009 (ip), vehicle: saline) 205 % of control; (dose: 125.0 mg/kg/injection, schedule: Q01DX009 (ip), vehicle: saline) 243 % of control and 419 % of control; (dose: 150.0 mg/kg/injection, schedule: Q01DX009 (ip), vehicle: saline with Tween-80) 512 % of control; (dose: 150.0 mg/kg/injection, schedule: Q01DX009 (ip), vehicle: saline) 288 % of control and 370 % of control; (dose: 175.0 mg/kg/injection, schedule: Q01DX005 (ip), vehicle: saline with Tween-80) 163 % of control; (dose: 175.0 mg/kg/injection, schedule: Q01DX009 (ip), vehicle: saline with Tween-80) 551 % of control. In addition, the T/C (dose: 175.0 mg/kg/injection, schedule: Q01DX009 (ip), vehicle: saline) was 318 % of control; the T/C (dose: 200.0 mg/kg/injection, schedule: Q01DX005 (ip), vehicle: saline with Tween-80) was 179 % of control; the T/C under setting [5] is 298 % of control; the T/C (dose: 250.0 mg/kg/injection, schedule: Q01DX009 (ip), vehicle: saline with Tween-80) is 189 % of control.

As to `N#CC(C#N)=C(C#N)c1ccccc1`, the T/C is, setting by setting: under setting [2], 96 % of control; under setting [3], 98 % of control; (dose: 50.0 mg/kg/injection, schedule: Q01DX001 (ip), vehicle: saline with Tween-80) 94 % of control; under setting [4], 94 % of control.

Consider `O=C1C=C(c2ccccc2)C(O)(c2ccccc2)C1` (configuration not stated), for which the T/C under setting [4] is 89 % of control, the T/C under setting [6] is 104 % of control and the T/C under setting [5] is 89 % of control.

With `CCc1ncc(C(C)(O)c2ccc(C)cc2)n1Cc1ccccc1` (configuration not stated), the T/C by setting is: under setting [6], 92 % of control; under setting [5], 90 % of control; under setting [7], 97 % of control.

For `O=c1c2c([nH]c3ccccc13)CSC2`, the T/C is, setting by setting: (dose: 100.0 mg/kg/injection, schedule: Q04DX003 (ip), vehicle: saline with Tween-80) 92 % of control; (dose: 200.0 mg/kg/injection, schedule: Q04DX003 (ip), vehicle: saline with Tween-80) 87 % of control; (dose: 400.0 mg/kg/injection, schedule: Q04DX003 (ip), vehicle: saline with Tween-80) 94 % of control.

For the molecule `Fc1ccc(CC(F)F)cc1`, the T/C is, setting by setting: under setting [8], 107 % of control; under setting [9], 98 % of control; under setting [10], 103 % of control.

For `N#CC(C#N)=C1c2ccccc2C(=O)c2ccccc21`, the T/C was 90 % of control under setting [6], 86 % of control under setting [5] and 90 % of control under setting [7].

Take `O=P(Oc1ccccc1)(Oc1ccccc1)C(Nc1ccccc1)c1ccccc1` (configuration not stated): the T/C under setting [6] was 88 % of control, the T/C under setting [5] is 97 % of control and the T/C under setting [7] was 89 % of control.

Regarding `CCOC(=O)c1ccc(OCC(=O)Nc2ccccc2)cc1`, the T/C is, setting by setting: under setting [6], 97 % of control; under setting [5], 96 % of control; under setting [7], 103 % of control.

As for `CC1=NOC(=O)C1C(C)(C)C1C(=O)ON=C1C` (configuration not stated), the T/C under setting [6] was 107 % of control, the T/C under setting [5] is 104 % of control and the T/C under setting [7] was 104 % of control.

Consider `COC(=O)c1ccc(C)c(NC2=NCCO2)c1`, for which the T/C was 96 % of control under setting [1]; 97 % of control under setting [2]; 102 % of control under setting [3]; 105 % of control under setting [4]; 97 % of control under setting [8]; 97 % of control under setting [9]. Under setting [10], the T/C is 93 % of control.

Turning to `CC1(C)C(O)(C#N)C(C)(C)C1(O)C#N` (configuration not stated), the T/C runs as follows: (dose: 6.25 mg/kg/injection, schedule: Q04DX003 (ip), vehicle: saline) 102 % of control; (dose: 12.5 mg/kg/injection, schedule: Q04DX003 (ip), vehicle: saline) 97 % of control.

For `CC1CC([O-])=N/[N+]1=C\c1ccccc1` (configuration not stated), the T/C is, setting by setting: (dose: 100.0 mg/kg/injection, schedule: Q04DX003 (ip), vehicle: saline) 101 % of control; (dose: 200.0 mg/kg/injection, schedule: Q04DX003 (ip), vehicle: saline) 96 % of control; (dose: 400.0 mg/kg/injection, schedule: Q04DX003 (ip), vehicle: saline) 94 % of control.
